For assay [1], the target named is T1, recombinant human matrix metalloproteinase 9 (rhMMP-9) (Homo sapiens, UniProt P14780).
T1 construct: amino acid residues from 107 to 707, consisted of the catalytic domain (Phe107 to Gly223); His-tag; made in house; host or cells: Escherichia coli BL21 (DE3), vector pET21a(+)
The experiment in a line: Surface plasmon resonance (SPR) binding to immobilized rhMMP-9. The conditions noted are these: 37°C, 5-40 µM. The source says:
A dual-flow channel MP-SPR Navi 210A analyzer (BioNavis Ltd., Tampere-region, Finland) was used to evaluate SPR kinetic parameters on gold chips (BioNavis Ltd., Finland). A solution of both EDC/NHS ((N-(3-dimethylaminopropyl)-N′-ethylcarbodiimide hydrochloride) (0.2 M) and NHS (N-hydroxysuccinimide) (0.05 M)) was employed for the activation of […] carboxylic groups. Immobilization of the rMMP-9 enzyme on the CMD Au chip was accomplished by a standard amine coupling protocol. For blocking unreacted sites, ethanolamine–HCl (1 M, pH 8.5) reagent was used.
The SPR technique, a current method for examining the interaction between ligand and protein, was employed in this research. As presented in Figure 6, association (Ka) and dissociation (Kd) constants were evaluated through sensorgrams (RU vs. time). Five […] concentrations for each of the three natural compounds were used (5, 10, 20, 30, 40 µM).
The equilibrium constant KD, which evaluates the affinity of a ligand to a protein, was determined using the formula: =Kd/Ka . A lower value of the KD constant indicates a higher interaction affinity between the protein and ligand.

The target in assay [2] is T1, recombinant human matrix metalloproteinase 9 (rhMMP-9). The experiment in a line: Protease activity assay of rhMMP-9 with casein as substrate. It counts as biochemical. Conditions: for α: KI = α × Ki; for type of inhibition: Lineweaver-Burk and secondary plots, mixed type; for IC50: casein degradation assay, inhibitor 0 to 70 µM, read-out: IC50 of rhMMP-9 activity inhibition; for Ki: dissociation constant of EI complex, from secondary plot of slope against [I]; for αKi (KI): dissociation constant of ESI complex, from Dixon plot of 1/V'max against [I]; for K m: casein substrate. On the procedure: To determine the hydrolyzing activity of rhMMP-9, casein was used as a substrate. A casein solution (1% w/v) was added to the extracted and purified rhMMP-9, and the final volume was adjusted to 1 mL with Tris buffer (pH 7). The expression product and substrate mix were incubated with shaking for 5 minutes at 37°C. To stop the process, 1 mL of cold trichloroacetic acid (TCA, 15%) was added to the mixture. This mixture was then kept at -20°C for 10 minutes and centrifuged twice (8000 g, 5 min, 4°C) to separate soluble peptides. The pellet was discarded, and the absorbance of the supernatant soluble peptides fraction was evaluated at 280 nm. All spectrophotometric measurements were accompanied by a blank assay in the absence of the enzyme. Enzyme activity was calculated from the tyrosine standard curve and expressed as mean ± SD in units of [µmol/min] after at least five repeats ([22]). SPSS software version 9 was used for data interpretation, and all graphs were drawn and kinetic parameters calculated using an Excel spreadsheet software program. The Quest Graph IC50 Calculator was used for the calculation of IC50 values.
A cell-free casein degradation-based assay was employed to evaluate the influence of ellagitannins on the catalytic activity of the rhMMP-9 enzyme. By adding various fixed quantities of casein as a substrate and a fixed concentration of enzyme, the enzyme activity was determined in the presence of different concentrations of ellagitannins (ranging from 0 to 70 µM). The rate of tyrosine production by the protease activity of rhMMP-9 was assessed based on a calibration curve over 1 minute, which refers to enzyme activity.
To examine the effects of inhibitors on the kinetic parameters of rhMMP-9, Michaelis-Menten saturation curves and Lineweaver-Burk plots were drawn in the presence of various concentrations of inhibitors (5 - 30 µM) and substrate range (0 - 0.3%) (Figure 4).
The first of these is a Dixon plot of 1/Vʹmax against the concentration of inhibitor [I], from which the value of -αKi as the x-intercept can be determined (Figure 5A - C). The second is the slope of the primary plot (from the Lineweaver-Burk plot) against the concentration of inhibitor [I], from which the value of -Ki as the x-intercept can be determined (Figure 5D - F).

Here are results for 3 compounds from paper PMC12297016 (Iranian Journal of Pharmaceutical Research : IJPR, 2025).

In general, Kd refers to the concentration at which binding is half-saturated. What is called IC50 is the concentration needed to halve the response being measured. By Ki is commonly meant the equilibrium dissociation constant of an inhibitor or competing ligand from its target.

T1 sequence (P14780 107-707): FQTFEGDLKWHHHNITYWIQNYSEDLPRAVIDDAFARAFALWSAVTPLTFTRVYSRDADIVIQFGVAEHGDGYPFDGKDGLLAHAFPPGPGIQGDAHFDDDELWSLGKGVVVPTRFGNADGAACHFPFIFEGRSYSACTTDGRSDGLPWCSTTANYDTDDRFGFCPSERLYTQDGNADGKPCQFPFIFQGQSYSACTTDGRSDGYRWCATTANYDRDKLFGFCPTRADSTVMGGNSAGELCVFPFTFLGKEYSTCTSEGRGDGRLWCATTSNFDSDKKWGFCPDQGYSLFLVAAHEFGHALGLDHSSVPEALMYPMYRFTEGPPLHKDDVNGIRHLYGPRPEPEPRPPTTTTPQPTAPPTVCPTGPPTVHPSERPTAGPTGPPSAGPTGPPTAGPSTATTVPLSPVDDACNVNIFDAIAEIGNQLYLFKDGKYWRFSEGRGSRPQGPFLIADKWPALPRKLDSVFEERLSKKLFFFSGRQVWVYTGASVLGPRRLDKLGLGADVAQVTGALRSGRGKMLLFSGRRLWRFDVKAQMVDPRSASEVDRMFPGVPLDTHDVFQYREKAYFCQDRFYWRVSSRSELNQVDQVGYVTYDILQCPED

Consider `O=c1oc2cc(O)ccc2c2ccc(O)cc12` [Uro A, urolithin A], for which, in assay [1], the Kd turned out to be 67 µM. Moreover, in assay [2], the α was 0.25, the type of inhibition result is recorded as “non-competitive-uncompetitive pattern”, the IC50 was found to be 33.3 µM and the Ki is 12 µM. Besides, in assay [2], the αKi (KI) is 3.03 µM and the “extent of inhibition of catalytic activity at high concentrations” value is reported as “entirely inhibit”. Further, in assay [2] (inhibitor 5 µM), the V max turned out to be 0.120 ± 0.006 µmol/min and the K m was 0.085 ± 0.004%. Further, in assay [2] (inhibitor 15 µM), the V max is recorded as 0.04 ± 0.002 µmol/min and the K m was determined as 0.1 ± 0.005%.

Take `O=c1oc2c(O)c(O)cc3c(=O)oc4c(O)c(O)cc1c4c23` [EA, ellagic acid]: the dissociation constant Kd in assay [1] is 113 µM. Also, in assay [2], the α turned out to be 1.11, the type of inhibition result is reported as “competitive-non-competitive pattern”, the IC50 turned out to be 17.1 µM and the Ki stood at 24.9 µM. For the same compound, the “αKi (KI)” value in assay [2] (in µM) is given as 27.57. The “reduction of catalytic activity” value in assay [2] (high concentration (60 µM)) is 90%. In addition, in assay [2] (inhibitor 15 µM), the V max stood at 0.093 ± 0.005 µmol/min and the K m amounted to 0.03 ± 0.002%. Also, in assay [2] (inhibitor 30 µM), the V max is 0.078 ± 0.004 µmol/min and the K m is reported as 0.03 ± 0.002%.

As to `O=c1oc2cc(O)ccc2c2ccccc12` [Uro B, urolithin B], the Kd in assay [1] stood at 43 µM. For the same compound, in assay [2], the α is given as 0.13, the type of inhibition result is given as “non-competitive-uncompetitive pattern”, the IC50 was 13.2 µM and the Ki was found to be 22.5 µM. In assay [2], the αKi (KI) was found to be 3.02 µM and the “extent of inhibition of catalytic activity at high concentrations” value was “entirely inhibit”. In addition, in assay [2] (inhibitor 5 µM), the V max stood at 0.079 ± 0.004 µmol/min and the K m is recorded as 0.030 ± 0.002%. Further, in assay [2] (inhibitor 15 µM), the V max was 0.033 ± 0.002 µmol/min and the K m worked out at 0.020 ± 0.001%.
